Test results: patent EP4621052A1, “IMMUNE CELL TARGETING PROBE, PRE-TARGETING RECOGNITION AND DRUG DELIVERY SYSTEM BASED ON PROBE, AND USE THEREOF” (Guangdong Keyangle Life Technology Co., Ltd., priority 2022, dated 2024)
Where no end group is shown, it is not given here.

T1: Peptide segment KL19 (KEQPDPGAVAAAAILRAIL)
T1 construct: Synthetic peptide used as ELISA coating antigen; Derived from the C-terminal fragment of Triokinase/FMN cyclase, with an added N-terminal K
T1 peptide: KEQPDPGAVAAAAILRAIL


Experiments:
[1] = tested on: macrophages on the mesentery; experiment: pre-targeting delivery after intraperitoneal injection, mesentery, fluorescence microscopy; type: in vivo, Kunming mice; conditions: peptide 10 µM intraperitoneal, Strep-PE intraperitoneal 3 h later, killed 1 h later; F4/80-APC counterstain
Method: (§1) The specific experimental steps are as follows: Biotinylated targeting polypeptides bio-KS24 and bio-KS29 (i.e., targeting polypeptides connected with the pre-targeting binding handles) were prepared according to the steps described in the above examples.
(§2) The targeting polypeptides (bio-KS24 and bio-KS29) connected with the pre-targeting binding handles were prepared, respectively, with a final concentration of 10 µM and a final volume of 100 µL. Then, the mixture was diluted with PBS to 4 times of the original volume (i.e., 100 µL of the mixed system was diluted to 400 µL), and then injected into Kunming mice intraperitoneally, with an injection volume of 400 µL per mouse. After the injection of the targeted polypeptide for 3 h, 5 µL Trep-PE was diluted into 100 µL of 1× PBS and intraperitoneally injected into mice. The mice were killed 1 h after the injection, and free peritoneal cells and mesentery were extracted and counterstained with F4/80-APC antibody. After incubation, the cells were washed twice with 1× PBS and observed under a fluorescence microscope.
(§3) Untreated healthy mice were used as controls.

[2] = tested on: peritoneal free macrophages; experiment: pre-targeting delivery after intraperitoneal injection, free peritoneal cells, fluorescence microscopy; type: in vivo, Kunming mice; conditions: peptide 10 µM intraperitoneal, Strep-PE intraperitoneal 3 h later, killed 1 h later; F4/80-APC counterstain
Method: as §1, §2, §3

peritoneal macrophages = experiment: in vivo labeling of peritoneal macrophages by targeting polypeptide with pre-targeting binding handle; parameters: species or system Kunming mice; conditions: 10 µM peptide premixed with Strep-PE, intraperitoneal injection, 4 h; F4/80-APC counterstain; flow cytometry
Method: • (1) In vivo labeling of peritoneal macrophages by targeting polypeptides connected with pre-targeting binding handles: In this example, the targeting polypeptides KS24 (amino acid sequence: […] (SEQ ID NO: 29)) and KS29 (amino acid sequence: […] (SEQ ID NO: 30)) were used. The pre-targeting binding handle was biotin. The biotinylation steps of the targeting polypeptides were as follows: the biotinylation of targeting polypeptides was carried out by adding biotinylated amino acids during peptide synthesis, so that the biotinylation sites can be controlled. Two biotinylated targeting polypeptides (bio-KS24 and bio-KS29) were respectively connected to phycoerythrin-labeled streptavidin (Strep-PE), where streptavidin served as a linker, and the phycoerythrin was connected through the specific binding of the linker to the pre-targeting binding handle (biotin-avidin system) to the targeting polypeptide for immune cell labeling and tracing. The mixtures were incubated together at room temperature for 1 h. In a 100 µL reaction system, the final concentration of the biotinylated targeting polypeptide was 10 µM, and 1 µL of Strep-PE was added. After the incubation, two groups of healthy female Kunming mice (3 mice in each group) were selected. […] After incubation, the cells were washed twice with 1× PBS and analyzed using flow cytometry. […]

[3] = tested on: peripheral blood of Kunming mice; experiment: labeling of peripheral blood with targeting polypeptide with pre-targeting binding handle, flow cytometry; type: cell-based; conditions: 10 µM peptide; for staining of cell populations in peripheral blood: 4°C 30 min, Strep-PE, CD19 and CD5 antibodies; for identity of the labeled B lymphocyte population: CD19 and CD5 counterstain
Source text: (2) Labeling of peripheral blood with the targeting polypeptide connected with pre-targeting binding handle: Healthy Kunming mice were taken and killed by cervical dislocation, and their peripheral blood was collected using anticoagulant blood vessels.
KS24 and KS29 were biotinylated according to the method described in (1) to obtain targeting polypeptides bio-KS24 and bio-KS29 connected with pre-targeting binding handle. The targeting polypeptides bio-KS24 and bio-KS29 each connected with the pre-targeting binding handle were added to 50 µL of peripheral blood samples, respectively, to be diluted to 100 µL with 1×PBS so that the concentration of the targeting polypeptides bio-KS24 and bio-KS29 connected with the pre-targeting binding handle in the solution was 10 µM, and the mixture was incubated at 4°C for 30 min. After the incubation, red blood cells in the peripheral blood were lysed using a conventional red blood cell lysis reagent in the art according to the instructions, washed twice with 1×PBS, resuspended with 100 µL of 1×PBS, and 1 µL/tube of phycoerythrin-labeled Strep-PE, 0.5 µL/tube of anti-mouse CD19 Antibody, and 0.5 µL/tube of FITC anti-mouse CD5 Antibody were added, and incubated at room temperature for 1 h. After the incubation, the cells were washed twice with 1× PBS and analyzed by flow cytometry.

[4] = molecular target: T1, Peptide segment KL19 …; experiment: indirect ELISA, peptide as coating antigen

| identity of the labeled B lymphocyte population [3] | binding result [4] | Molecule | pre-labeling of macrophages on the mesentery [1] | pre-labeling of free peritoneal macrophages [2] | recognition of macrophages in peritoneal cells (peritoneal macrophages) | staining of cell populations in peripheral blood [3] |
| --- | --- | --- | --- | --- | --- | --- |
| CD5^+ B lymphocytes | – | bio-KS29: biotinylated targeting polypeptide KS29, KSSARLEQPDPGAVAAAAILRAILEVLQS (SEQ ID NO: 30) (also: biotinylated, site not given here) | could pre-label macrophages on the mesentery | could pre-label macrophages | can selectively recognize macrophages in peritoneal cells of mice | can stain a subset of B lymphocyte population and granulocyte population |
| CD5^+ B lymphocytes | – | bio-KS24: biotinylated targeting polypeptide KS24, KEQPDPGAVAAAAILRAILEVLQS (SEQ ID NO: 29) (also: biotinylated, site not given here) | could pre-label macrophages on the mesentery | could pre-label macrophages | can selectively recognize macrophages in peritoneal cells of mice | can stain a subset of B lymphocyte population and granulocyte population |
| – | no binding | KA-001 monoclonal antibody (antibody, mouse IgG1, kappa, V domains shown) VH: DVKIVESGGGLVKLGGSLKLSCAASGFTFSRNYMSWVRQTPEKRLELVAGINNNGGSTYYPDTVKGRFTISRDNAKNTLYLQMSSLRSEDTAIYYCAKRGFITTVGAMDYWGQGISVTVSS VL: DIQMTQTTFSLSASLGDRVTISCRASQDISNYLNWYQQIPDGTVKLLIYYTSRLHSGVPSRFSGSGSGTDYSLTISNLEQEDIATYFCQQVHTLPYTFGGGTKLEMKR | – | – | – | – |
